Measured values: patent US6583132B1, “Oxidant scavengers” (Duke University, priority 1993, dated 2003)

What was measured:
[1] = tested on: Calf pulmonary endothelial cell (CPA-47) line; assay: Glucose oxidase hydrogen peroxide injury of CPA-47, Cr^51 release; type: cell-based; details: glucose oxidase 100 Mu/ml, 4 hours; 1 hour pretreatment
Procedure: (§1) Calf pulmonary endothelial cell (CPA-47) line was grown to near confluence in 12-well plates with F-12K medium containing 10% fetal calf serum. CPA-47 cells were loaded with Cr^51 as previously described by Simon et al J. Clin. Invest. 78:1375 (1986) in high glucose minimum essential medium (DMEM). Cells were pretreated with MnTBAP (100 μM) for 1 hour and then exposed to various concentrations of hydrogen peroxide generator, glucose oxidase, for 4 hours. Cell injury was then quantitated as the specific Cr^51 release from CPA-47 cells which has been adjusted for spontaneous Cr51 release.
as §1, with “(J.” for “J.”, “(1986))” for “(1986)”, “various concentrations of either: (A) MnTBAP; (B) MnTMPyP; (C) ZnTBAP; or (D) CuZnSOD” for “MnTBAP (100 μM)”, “the” for “various concentrations of”, “oxidase (100 Mu/ml),” for “oxidase,”, “Cr^51” for “Cr51”

[2] = tested on: Rat pulmonary epithelial cell cultures (L2); assay: Paraquat-induced injury of L2 cells, LDH release; type: cell-based; details: 100 μM; Paraquat 2.5 mM, 48 hours
[3] = SOD activity (McCord and Fridovich); type: biochemical
Procedure: SOD activity can be monitored in the presence and absence of EDTA using the method of McCord and Fridovich (J. Biol. Chem. 244:6049 (1969)). The efficacy of a mimetic can be determined by measuring the effect of the mimetic on the growth of a SOD null E. coli strain versus a wild type strain. Specifically, wild type E. coli (AB1157) and SOD null E. coli. (JI132) can be grown in M9 medium containing 0.2% casamino acids and 0.2% glucose at pH 7.0 and 37° C.; growth can be monitored in terms of turbidity followed at 700 nm spectrophotometrically. Active mimetics can be tested for toxicity in mammalian cell culture by measuring lactate dehydrogenase (LDH) release. Specifically, rat L2 cells (a lung Type II like cell; (Kaighn and Douglas, J. Cell Biol. 59:106a (1973)) can be grown in Ham's F-12 medium with 10% fetal calf serum supplement at pH 7.4 and 37° C.; cells can be seeded at equal densities in 24 well culture dishes and grown to approximately 90% confluence; SOD mimetics can be added to the cells at log doses (eg micromolar doses in minimal essential medium (MEM)) and incubated for 24 hours. Toxicity can be assessed by morphology and by measuring the release of the cytosolic injury marker, LDH (eg on a thermokinetic plate reader), as described by Vassault (In: Methods of Enzymatic Analysis, Bergmeyer (ed) pp. 118-26 (1983); oxidation of NADH is measured at 340 nm). Efficacy of active mimetics can be assessed by determining their ability to protect mammalian cells against methylviologen (paraquat)-induced toxicity. Specifically, rat L2 cells grown as described above and seeded into 24 well dishes can be pre-incubated with various concentrations of the SOD mimetic and then incubated with a concentration of methylviologen previously shown to produce an LC75 in control L2 cells. Efficacy of the mimetic can be correlated with a decrease in the methylviologen-induced LDH release (St. Clair et al, FEBS Lett. 293:199 (1991)). The efficacy of SOD mimetics can be tested in vivo with mouse and/or rat models using both aerosol administration and parenteral injection. For example, male Balb/c mice can be randomized into 4 groups of 8 mice each to form a standard 2×2 contingency statistical model. Animals can be treated with either paraquat (40 mg/kg, ip) or saline and treated with SOD mimetic or vehicle control. Lung injury can be assessed 48 hours after paraquat treatment by analysis of bronchoalveolar lavage fluid (BALF) damage parameters (LDH, protein and % PMN) as previously described (Hampson et al, Tox. Appl. Pharm. 98:206 (1989); Day et al, J. Pharm. Methods 24:1 (1990)). […]
^2SOD activity determined as described by McCord and Fridovich, J. Biol. Chem. […] (1969).

[4] = tested on: calf pulmonary artery endothelial cell cultures (CPA-47); assay: Paraquat-induced injury of CPA-47 cells, LDH release; type: cell-based; details: varying concentrations; Paraquat 2 mM, 24 hours
Procedure: Calf pulmonary artery endothelial cell cultures (CPA-47) were grown to confluence in Ham's F-12K medium with 10% fetal bovine serum at pH 7.4 and 37° C. Cells were then trypsinized and seeded at equal densities in 24 well plates and grown to 90% confluence. Cells were washed and pre-incubated for 1 hour with varying concentrations of ZnTBAP in MEM or MEM only. Paraquat (2 mM) was added and allowed to incubate for 24 hours. Cell injury was quantitated by measuring the release of cellular lactate dehydrogenase (LDH) into the medium.

CuZn SOD = molecular target: T1, CuZn SOD (Mus musculus, UniProt P08228); assay: Brain CuZn SOD activity after diethyldithiocarbamate; type: in vivo; details: transgenic and nontransgenic mice, sacrificed one hour later
T1 construct: from tissue; host or cells: mouse brain; homogenate fraction left after removal of EC-SOD on concanavalin A sepharose
Procedure: (§2) Separation of SOD isoenzymes by concanavalin A sepharose chromatography: Tissues taken from 3 mice were weighed, then combined and homogenized in 10 volumes of ice-cold 50 mM potassium phosphate, pH 7.4, with 0.3 M. KBr, 3 mM diethylenetriaminepentaacetic acid, and 0.5 mM phenylmethylsulfonyl fluoride. Separation of EC-SOD from CuZn SOD and Mn SOD was accomplished by passing tissue homogenates over a concanavalin A sepharose column as described (Marklund et al, Clin. Chim. Acta 126:4 (1982)). SOD activity: EC-SOD activity and total SOD activity (CuZn SOD and Mn SOD) remaining after EC-SOD extraction were measured by inhibition of cytochrome C reduction at pH 10, as previously described (Crapo et al, Methods Enzymol. 53:382 (1978)). Total protein was determined by the BCA protein assay (Pierce, Rockford, Ill.). The SOD activities were then expressed as units/mg total protein. To determine the extent of EC-SOD and CuZn SOD inhibition by diethyldithiocarbamate, mice were given diethyldithiocarbamate and sacrificed one hour later. The brains were removed and assayed for EC-SOD and CuZn SOD activity as described above.

EC-SOD = molecular target: T2, EC-SOD (Mus musculus, UniProt O09164); assay: Brain EC-SOD activity after diethyldithiocarbamate; type: in vivo; details: transgenic and nontransgenic mice, sacrificed one hour later
T2 construct: The brains were removed and assayed for EC-SOD and CuZn SOD activity as described above; from tissue; host or cells: mouse brain; EC-SOD separated from the homogenate on concanavalin A sepharose
T2 sequence (O09164 25-251): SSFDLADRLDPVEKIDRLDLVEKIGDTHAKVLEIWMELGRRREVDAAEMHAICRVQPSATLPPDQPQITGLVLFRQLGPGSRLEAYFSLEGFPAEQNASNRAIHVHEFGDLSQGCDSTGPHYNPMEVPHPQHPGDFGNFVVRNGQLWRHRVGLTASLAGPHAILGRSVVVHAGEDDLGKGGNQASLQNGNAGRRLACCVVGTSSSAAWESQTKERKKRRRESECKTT
Procedure: as §2

[5] = CNS oxygen toxicity, 6 ATA hyperbaric oxygen exposure; type: in vivo, mice; details: 6 ATA oxygen 25 minutes, DDC 400 mg/kg i.p. or LNNA 20 mg/kg i.p.
Procedure: Oxygen exposures: 7-8 week old mice were exposed to hyperbaric oxygen five at a time in a small-animal chamber (Bethlehem, Pa.). After flushing the chamber with pure oxygen, compression to 50 meters (6 ATA) was performed within 5 minutes. The oxygen concentration in the chamber was monitored continuously with a Servomex oxygen analyzer (model 572, Sybron, Norwood, Mass.) and maintained at ≳99%. The carbon dioxide concentration was analyzed from intermittent samples of chamber gas with an IR detector (IR Industries, Santa Barbara, Calif.) and was not allowed to rise above 0.1%. The chamber temperature was maintained at 25-26° C., but the compression of oxygen in the chamber raised the temperature to 30-32° C. transiently, but an environmental control system restored the normal chamber temperature within 3 minutes. […] The mice were observed continuously for signs of oxygen toxicity from the beginning of the exposure until 4 hours after removal from the chamber. The time to the first generalized convulsion (seizure latency) and the time to death were recorded. These exposure conditions are designed to cause CNS oxygen toxicity without appreciable evidence of pulmonary oxygen toxicity.
Treatment with diethyldithiocarbamate: One hour prior to exposure to 6 ATA oxygen, mice were given either i.p. injections of either 0.008 cc/g saline or 400 mg/kg diethyldithiocarbamate dissolves in normal saline (0.008 cc/g). The mice were then exposed to 6 ATA oxygen for 25 minutes as described above.
Treatment with β-mercaptoethanol: One hour prior to exposure to 6 ATA oxygen, mice were given either i.p. injections of 0.008 cc/g saline or 180 mg/kg β-mercaptoethanol (0.008 cc/g). This dose of β-mercaptoethanol was selected because it contains an equal number of reducing thiols as the dose of diethyldithiocarbamate. The mice were then exposed to 6 ATA oxygen for 30 minutes as described above.
Treatment with N-ω-nitro-L-arginine, an inhibitor of nitric oxide synthase: Ten minutes prior to beginning compression, 0.008 cc/g saline or 20 mg/kg (0.008 cc/g) N-ω-nitro-L-arginine dissolved in sterile water was given i.p to the transgenic and nontransgenic mice. Mice were then exposed at 6 ATA oxygen for 25 or 75 minutes as described above.

T1 sequence (P08228 whole entry): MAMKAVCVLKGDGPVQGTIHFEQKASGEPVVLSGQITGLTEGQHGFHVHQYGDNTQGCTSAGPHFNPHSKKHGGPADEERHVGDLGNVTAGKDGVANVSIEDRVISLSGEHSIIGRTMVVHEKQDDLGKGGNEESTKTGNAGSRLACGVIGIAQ

Row | SMILES | hydrogen peroxide-induced endothelial cell injury [1] | paraquat-induced LDH release [2] | SOD activity, fold less than MnTBAP [3] | paraquat-induced LDH release / injury [4] | inhibition at 400 mg/kg (CuZn SOD) | inhibition at 400 mg/kg (EC-SOD) | Survival ([5]; nontransgenic mice) | Survival ([5]; transgenic mice)
1 | C[n+]1ccc(-c2c3nc(c(-c4cc[n+](C)cc4)c4ccc([n-]4)c(-c4cc[n+](C)cc4)c4nc(c(-c5cc[n+](C)cc5)c5ccc2[n-]5)C=C4)C=C3)cc1.[Mn+3] [MnTMPyP, Mn(III) tetrakis (1-methy-4-pyridyl)porphyrin] | reduction | decrease paraquat-induced LDH release | – | – | – | – | – | –
2 | O=C(O)c1ccc(-c2c3nc(c(-c4ccc(C(=O)O)cc4)c4ccc([n-]4)c(-c4ccc(C(=O)O)cc4)c4nc(c(-c5ccc(C(=O)O)cc5)c5ccc2[n-]5)C=C4)C=C3)cc1.[Zn+2] [ZnTBAP, reference compound] | does not reduce | – | 10 fold | does not protect against paraquat-induced injury | – | – | – | –
3 | CCN(CC)C(=S)S [diethyldithiocarbamate] | – | – | – | – | 60% | 80% | 93% | 100%
